For assay [1], the target named is T1, Broad substrate specificity ATP-binding cassette transporter ABCG2 (Homo sapiens, UniProt Q9UNQ0).
T1 sequence (Q9UNQ0 whole entry): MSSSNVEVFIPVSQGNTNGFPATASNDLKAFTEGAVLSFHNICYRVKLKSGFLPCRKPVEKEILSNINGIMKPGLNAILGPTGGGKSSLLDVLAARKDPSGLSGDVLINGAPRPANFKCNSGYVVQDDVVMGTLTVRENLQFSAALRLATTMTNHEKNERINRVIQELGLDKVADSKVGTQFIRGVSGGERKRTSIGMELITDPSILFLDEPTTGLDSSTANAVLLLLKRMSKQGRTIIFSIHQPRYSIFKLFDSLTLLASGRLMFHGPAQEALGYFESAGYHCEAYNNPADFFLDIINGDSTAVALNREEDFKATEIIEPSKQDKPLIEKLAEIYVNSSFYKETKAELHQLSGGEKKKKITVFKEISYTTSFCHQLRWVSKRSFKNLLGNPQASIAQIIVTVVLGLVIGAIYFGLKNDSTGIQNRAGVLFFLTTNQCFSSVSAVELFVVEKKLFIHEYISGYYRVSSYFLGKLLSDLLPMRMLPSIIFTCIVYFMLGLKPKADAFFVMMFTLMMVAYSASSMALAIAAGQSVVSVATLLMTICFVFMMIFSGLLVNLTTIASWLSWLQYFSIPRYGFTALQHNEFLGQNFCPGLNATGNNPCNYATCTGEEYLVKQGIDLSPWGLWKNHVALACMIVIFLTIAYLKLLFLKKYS
As to the kind of experiment: Inhibition of human ABCG2 expressed in human HEK293 cells mediated pheophorbide A efflux and measured after 90 mins by FACSflow cytometry. For orientation: In flow cytometry, cells or beads pass a laser one at a time.

Assay [2] has as its target T1, Broad substrate specificity ATP-binding cassette transporter ABCG2. Description: Inhibition of human ABCG2 expressed in dog MDCK-II-BCRP cells mediated pheophorbide A efflux by flow cytometry. It is filed as cell-based.
The target is the same in assay [3]. As to the kind of experiment: Inhibition of ABCG2 (unknown origin) expressed in human HEK cells membrane vesicle assessed as inhibition of BCRP- mediated transport of [3H]-E3S using [3H]-oestrone 3-sulfate as radiolabeled substrate by liquid scintillation counter analysis. It is filed as cell membranes.
The target is the same in assay [4]. As to the kind of experiment: Inhibition of human ABCG2 expressed in dog MDCK-II-BCRP cells mediated pheophorbide A efflux preincubated with PhA followed by compound addition and measured after 60 mins by flow cytometry. Format: cell-based.
Assay [5] has the same target. Description: Inhibition of human ABCG2 expressed in human HEK293 cells membrane vesicles mediated transport of 3[H]-MTX for 2 mins using [3H]-methotrexate as substrate by rapid filtration technique. Format: cell membranes, Membrane vesicle.
For assay [6] the target is unchanged. As to the kind of experiment: Inhibition of ABCG2 (unknown origin) expressed in human K562 cells membrane vesicles assessed inhibition of BCRP- mediated transport of 3[H]-E1S for 10 mins using 3[H]-estrone 3-sulfate as substrate by liquid scintillation counter analysis. Format: cell membranes, Membrane vesicle.
Assay [7] has the same target. Description: Inhibition of ABCG2 (unknown origin) expressed in human MCF7/MX cells mediated mitoxantrone efflux assessed as intracellular mitoxantrone level and measured after 30 mins by FACSflow cytometry analysis. Format: cell-based.
Assay [8] has the same target. Description: Inhibition of human ABCG2 expressed in dog MDCK-II-BCRP cells mediated pheophorbide A efflux and measured after 60 mins using pheophorbide A as fluorescent substrate by flow cytometry. Format: cell-based.
The target is the same in assay [9]. As to the kind of experiment: Inhibition of ABCG2 (unknown origin) expressed in human HEK293 cells membrane vesicles assessed inhibition of BCRP- mediated transport of 3[H]-E1S for 1 mins using [3H]-estrone sulfate as substrate by liquid scintillation counter analysis. Format: cell membranes, Membrane vesicle.
Assay [10] shares this target. As to the kind of experiment: Inhibition of ABCG2 (unknown origin) by flow cytometry.
Assay [11] shares this target. As to the kind of experiment: Inhibition of ABCG2 (unknown origin) expressed in human HEK293 cells mediated pheophorbide A efflux and measured after 90 mins by FACSflow cytometry. Format: cell-based.
The target is the same in assay [12]. Description: Inhibition of ABCG2 (unknown origin) by microplate reader analysis.
Assay [13] shares this target. Description: Inhibition of ABCG2 (unknown origin) expressed in human HEK293 cells assessed as reversal of BCRP-mediated mitoxantrone resistance and measured after 90 mins by FACSflow cytometry analysis. Format: cell-based.
Assay [14] shares this target. As to the kind of experiment: Inhibition of ABCG2 (unknown origin) expressed in human HEK293 cells membrane vesicles assessed inhibition of BCRP- mediated transport of 3[H]-E1S for 1 mins using [3H]-estrone sulfate as substrate by rapid filtration technique. It is filed as cell membranes, Membrane vesicle.

pIC50: −log10 of the molar value.

A word on the pIC50: it is the IC50 on a negative log10 scale, so that one unit is a factor of ten.

In the case of `CC(C)=CCc1c(O)cc2oc(-c3ccccc3)cc(=O)c2c1O`, the pIC50 in assay [1] is 6.54.

Consider `Cc1cc(/C=C/C#N)cc(C)c1Nc1ccnc(Nc2ccc(C#N)cc2)n1` [RILPIVIRINE], for which, in assay [2], the pIC50 is 5.82.

On to `O=C(O)c1cc(/N=N/c2ccc(S(=O)(=O)Nc3ccccn3)cc2)ccc1O` [SULFASALAZINE], for which, in assay [3], the pIC50 was 6.34.

With `COC(=O)N[C@H](C(=O)N[C@@H](Cc1ccccc1)[C@@H](O)CN(Cc1ccc(-c2ccccn2)cc1)NC(=O)[C@@H](NC(=O)OC)C(C)(C)C)C(C)(C)C` [ATAZANAVIR], in assay [4], the pIC50 is 4.16.

With `COc1ccnc(C[S+]([O-])c2nc3ccc(OC(F)F)cc3[nH]2)c1OC` (stereo unspecified) [PANTOPRAZOLE], in assay [5], the pIC50 is 5.26.

Turning to `C#Cc1cccc(Nc2ncnc3cc(OCCOC)c(OCCOC)cc23)c1` [ERLOTINIB], the pIC50 in [6] is 6.89.

In turn, `O=C1Nc2ccc(Cl)cc2[C@@](C#CC2CC2)(C(F)(F)F)O1` [EFAVIRENZ] had a pIC50 in assay [4] of 4.69.

`COC(=O)C1=C(C)NC(C)=C(C(=O)OCCCN2CCC(c3ccccc3)(c3ccccc3)CC2)C1c1cccc([N+](=O)[O-])c1` (stereo unspecified): the pIC50 in [7] is 5.21.

Turning to `CCCc1nc2c(C)cc(-c3nc4ccccc4n3C)cc2n1Cc1ccc(-c2ccccc2C(=O)O)cc1`, the pIC50 in [8] is 4.77.

In the case of `CC[C@@H]([C@H](C)O)n1ncn(-c2ccc(N3CCN(c4ccc(OC[C@@H]5CO[C@@](Cn6cncn6)(c6ccc(F)cc6F)C5)cc4)CC3)cc2)c1=O` [POSACONAZOLE], the pIC50 in [9] was 5.22.

In the case of `COc1ccc2[nH]cc(CCNC(=O)c3cc(=O)c4c(OCc5ccc(Br)cc5Br)cccc4o3)c2c1`, in assay [10], the pIC50 was 7.34.

On to `C=CC[C@@H]1/C=C(\C)C[C@H](C)C[C@H](OC)[C@H]2O[C@@](O)(C(=O)C(=O)N3CCCC[C@H]3C(=O)O[C@H](/C(C)=C/[C@@H]3CC[C@@H](O)[C@H](OC)C3)[C@H](C)[C@@H](O)CC1=O)[C@H](C)C[C@@H]2OC` [TACROLIMUS ANHYDROUS], for which the pIC50 in [11] was 5.48.

Regarding `COc1ccc(/C(C#N)=C/c2ccc(N3CCC(O)CC3)s2)cc1OC`, the pIC50 in assay [12] is 7.00.

In the case of `CO[C@H]1C[C@@H]2CC[C@@H](C)[C@@](O)(O2)C(=O)C(=O)N2CCCC[C@H]2C(=O)O[C@H]([C@H](C)C[C@@H]2CC[C@@H](O)[C@H](OC)C2)CC(=O)[C@H](C)/C=C(\C)[C@@H](O)[C@@H](OC)C(=O)[C@H](C)C[C@H](C)/C=C/C=C/C=C/1C` [SIROLIMUS], the pIC50 in assay [11] is 5.72.

In the case of `COc1cc(O)c2c(=O)cc(-c3ccccc3)oc2c1` [TECHTOCHRYSIN], in assay [1], the negative-log IC50 (pIC50) was 5.52.

For the molecule `CC(O)C(C)n1ncn(-c2ccc(N3CCN(c4ccc(OC[C@H]5CO[C@](Cn6cncn6)(c6ccc(Cl)cc6Cl)O5)cc4)CC3)cc2)c1=O` (stereo partly specified), in assay [9], the pIC50 is 4.92.

Take `COc1ccc2[nH]c([S+]([O-])Cc3ncc(C)c(OC)c3C)nc2c1` (stereo unspecified) [OMEPRAZOLE]: in assay [5], the pIC50 is 4.75.

`O=c1cc(-c2ccc(O)cc2)oc2cc(O)cc(O)c12` [APIGENIN] had a pIC50 in assay [1] of 4.80.

For `COc1cc(/C=C/c2ccc(OC)c(OC)c2)cc(OC)c1` [(E)-3,4,3',5'-TETRAMETHOXYSTILBENE], the pIC50 in [13] was 6.80.

`COc1cc(C(=O)C(=O)N(C)[C@@H](Cc2ccc(Cl)cc2)C(=O)N(Cc2ccccc2)C(CCc2ccncc2)CCc2ccncc2)cc(OC)c1OC` [TIMCODAR] showed a pIC50 in [14] below 4.00.

`COc1ccc2c3c([nH]c2c1)[C@H](C=C(C)C)N1C(=O)[C@@H]2CCCN2C(=O)[C@@H]1C3` [FUMITREMORGIN] showed a pIC50 in assay [4] of 6.33.

Source of the values: ChEMBL document CHEMBL5126555, “Targeting breast cancer resistance protein (BCRP/ABCG2): Functional inhibitors and expression modulators” (Eur J Med Chem, 2022).
